This is an account of results in patent publication US10093679B2, “Amino sulfonyl-based compounds, the preparation method therefor and use thereof” (SUZHOU VIGONVITA LIFE SCIENCES CO., LTD., priority 2014, dated 2018).

The test system of experiment [1] is maximal electroshock seizure. In words: Maximal electroshock seizure (MES) test on mice. The class given is in vivo. The settings on record: 100 mg/kg intragastric. The source says:
The Maximal Electroshock Seizure Test on Mice
MES (maximal electroshock seizure test) was used to evaluate whether the compounds have an effect against […] and thus to make preliminary evaluation of the efficacy of each compound in treating epilepsy. Multipurpose instrument for pharmacological and biological experiments (mode, YSD-4G) was used to conduct experiments under the condition of convulsive mode, 115V of stimulation voltage, 250 ms of stimulation time, 50 HZ AC voltage. Positive and negative electrodes were used to clamp the left and right ear of the mice, respectively, which were wetted by normal saline. The tonic hind limb extension seizure after stimulation was deemed as judgment standard of grand mal. The mice were randomly divided into groups. The compounds were given by intragastric administration based on the dose of 100 mg/kg.
A general note: The maximal electroshock test induces tonic seizures with an electrical stimulus.

Experiment [2] can be described thus: Influence on rats' serum total cholesterol and triglyceride. The class given is in vivo, SD rats. More on the design: total cholesterol / triglyceride: unit not given here. The settings on record: for total cholesterol / triglyceride: rats' serum, 5 weeks after administration. Here is the method:
Study on the Influence of the Compounds on the Rats' Total Cholesterol and Triglyceride
50 male SD rats with weight of 180˜200 g were randomly divided into groups with 8 in each group. […] 5 weeks after administration, the level of total cholesterol and triglyceride in rats' serum were determined and the results were shown in table 2.

Experiment [3] addresses T1, Human carbonic anhydrase II (CA-II) (Homo sapiens, UniProt P00918).
T1 construct: purchased Sigma
In words: Inhibiting effect on carbonic anhydrase (CO2 hydration, bromothymol blue colour change). The class given is biochemical. How it is done:
Preparation Method of the Reagent
Chromogenic Buffer Solution:
HEPES was dissolved in distilled water to prepare a solution with a concentration of 10 mM; the pH was adjusted to 7.7 with 1 M Tris at 23° C.; bromothymol blue was dissolved in HEPES buffer solution with pH 7.7 to a concentration of 50 mg/L;
Saturated CO2-ice water was prepared by adding dry ice into icy distilled water.
Solution of CA-II enzyme was prepared into a concentration of 2 m/ml, and stored at −20° C.
Tested sample was prepared by using distilled water as solvent with various concentrations.
The time required for changing into yellow was recorded. The time required for the blank tube was recorded as t0, the time required for the standard tube was recorded as ts and the time required for the test tube was recorded as t. (t0−ts)/ts was normal activity of enzyme, and (t0−t)/t was the activity after affecting by the test compound.

Experiment [4] concerns maximal electroshock seizure. The following applies: literature value, cited from earlier work.

Molecules are shown by their SMILES. Where two headings read alike, the source gives them in different places.

Take `NS(=O)(=O)NCc1noc2cc(Cl)ccc12` [Example 1, N-[(6-chloro-benzo[d]isoxazol-3-yl)methyl]-sulfamide]: the “Inhibition rate of epileptic seizure” value came out at 66.7% in experiment [1] (0.5 h after administration) and 50% in experiment [1] (2 h after administration).
Take `NS(=O)(=O)NCc1noc2cc(F)ccc12` [Example 2, N-[(6-fluoro-benzo[d]isoxazol-3-yl)methyl]-sulfamide]: the “Inhibition rate of epileptic seizure” value in experiment [1] (2 h after administration) is 33.3%.
As for `NS(=O)(=O)NCc1noc2ccccc12` [Example 3, N-[(benzo[d]isoxazol-3-yl)methyl]-sulfamide], the total cholesterol in experiment [2] (20 mg/kg intragastric) was 1.64 ± 0.28; in experiment [2] (40 mg/kg intragastric) it was 1.53 ± 0.17; in experiment [2] (80 mg/kg intragastric), 1.32 ± 0.21. Besides, the figures for the triglyceride in experiment [2] (20 mg/kg intragastric), in experiment [2] (40 mg/kg intragastric) and in experiment [2] (80 mg/kg intragastric) were 1.13 ± 0.24, 0.99 ± 0.16 and 0.84 ± 0.06, respectively. The “effect on the level of total cholesterol and triglyceride (in words)” value in experiment [2] (rats' serum, 20, 40, 80 mg/kg, 5 weeks) was “significantly decrease”. Also, inhibition in experiment [3] was half-maximal at 154 µM (IC50). Moreover, the “inhibiting effect on carbonic anhydrase compared with reference drugs (in words)” value in experiment [3] was “poorer inhibiting effect than topiramate and zonisamide”. Moreover, the “Inhibition rate of epileptic seizure” value in experiment [1] (0.5 h after administration) turned out to be 88.9%; in experiment [1] (1.5 h after administration), 66.7%; in experiment [1] (2 h after administration), 77.8%.
In the case of `CN(C)S(=O)(=O)NCc1noc2ccccc12` [Example 9, N-[(benzo[d]isoxazol-3-yl)methyl]-N′,N′-dimethyl-sulfamide], the “Inhibition rate of epileptic seizure” value in experiment [1] (0.5 h after administration) turned out to be 44.4%; in experiment [1] (2 h after administration) it was 11.1%.
Consider `NS(=O)(=O)NCc1ccsc1Cl` [Example 13, N-[(2-chloro-3-thienyl)methyl]-sulfamide], for which the “Inhibition rate of epileptic seizure” value in experiment [1] (0.5 h after administration) amounted to 37.5%.
On to `NS(=O)(=O)NCc1csc2ccccc12` [JNJ-26990990], for which the “Inhibition rate of epileptic seizure” value in experiment [4] (0.5 h) is 20%; in experiment [4] (2 h), 60%.
Consider `CC1(C)O[C@@H]2[C@@H](CO[C@@]3(COS(N)(=O)=O)OC(C)(C)O[C@@H]23)O1` [Topiramate, reference compound], for which, in experiment [2] (40 mg/kg intragastric), the total cholesterol stood at 1.56 ± 0.19 and the triglyceride is given as 1.45 ± 0.34. Besides, the “Inhibition rate of epileptic seizure” value in experiment [1] (0.5 h after administration) came to 37.5%. Moreover, in experiment [1] (1.5 h after administration), the “Inhibition rate of epileptic seizure” value is recorded as 37.5%.
For the compound `NS(=O)(=O)Cc1noc2ccccc12` [Zonisamide, reference compound], the “Inhibition rate of epileptic seizure” value in experiment [1] (0.5 h after administration) came out at 33.3%; in experiment [1] (1.5 h after administration), 16.7%; in experiment [1] (2 h after administration), 16.7%.

As a reminder, the IC50 is the concentration at which inhibition is half-maximal.
